In patent US20040127518A1, “Modulation of anxiety through blockade of anandamide hydrolysis” (priority 2002, published 2004):
Like-named read-outs stand apart in the source and are kept apart here.

Columns and labels:
FAAH = target: T1, FAAH (Rattus norvegicus, UniProt P97612); experiment: biochemical; assay type: biochemical; set-up: from tissue; host or cells: rat brain (membrane fraction of homogenate; Wistar rats)
T1 sequence (P97612 1-579): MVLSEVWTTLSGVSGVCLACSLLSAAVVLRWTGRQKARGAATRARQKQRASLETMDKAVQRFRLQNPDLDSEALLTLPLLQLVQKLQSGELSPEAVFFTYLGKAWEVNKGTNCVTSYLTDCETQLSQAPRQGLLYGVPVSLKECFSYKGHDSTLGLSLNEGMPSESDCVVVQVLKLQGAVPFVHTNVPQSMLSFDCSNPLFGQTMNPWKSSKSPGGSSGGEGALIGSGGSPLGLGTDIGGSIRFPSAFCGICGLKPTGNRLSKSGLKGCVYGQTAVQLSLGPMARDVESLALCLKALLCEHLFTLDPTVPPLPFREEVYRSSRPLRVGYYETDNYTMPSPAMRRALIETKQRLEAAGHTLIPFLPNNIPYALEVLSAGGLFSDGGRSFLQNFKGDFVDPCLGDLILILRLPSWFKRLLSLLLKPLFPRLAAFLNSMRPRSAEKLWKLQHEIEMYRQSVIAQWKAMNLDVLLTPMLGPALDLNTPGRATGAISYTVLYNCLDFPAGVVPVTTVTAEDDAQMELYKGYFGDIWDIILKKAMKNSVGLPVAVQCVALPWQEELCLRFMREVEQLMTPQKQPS

[1] = target: electric eel acetylcholinesterase (Electrophorus electricus, UniProt O42275); experiment: biochemical
[2] = Table 4, FAAH IC50, read-out: Inhibition of Amidohydrolase IC50
[3] = Table 5, rat brain membranes, [3H]anandamide, read-out: IC50 (nM) ± S.E.M.
[4] = Table 6, meta-substituted derivatives, read-out: pIC50 obsd (converted)
[5] = Table 3, read-out: Amidohydrolase IC50

Chain of electric eel acetylcholinesterase (O42275 whole entry): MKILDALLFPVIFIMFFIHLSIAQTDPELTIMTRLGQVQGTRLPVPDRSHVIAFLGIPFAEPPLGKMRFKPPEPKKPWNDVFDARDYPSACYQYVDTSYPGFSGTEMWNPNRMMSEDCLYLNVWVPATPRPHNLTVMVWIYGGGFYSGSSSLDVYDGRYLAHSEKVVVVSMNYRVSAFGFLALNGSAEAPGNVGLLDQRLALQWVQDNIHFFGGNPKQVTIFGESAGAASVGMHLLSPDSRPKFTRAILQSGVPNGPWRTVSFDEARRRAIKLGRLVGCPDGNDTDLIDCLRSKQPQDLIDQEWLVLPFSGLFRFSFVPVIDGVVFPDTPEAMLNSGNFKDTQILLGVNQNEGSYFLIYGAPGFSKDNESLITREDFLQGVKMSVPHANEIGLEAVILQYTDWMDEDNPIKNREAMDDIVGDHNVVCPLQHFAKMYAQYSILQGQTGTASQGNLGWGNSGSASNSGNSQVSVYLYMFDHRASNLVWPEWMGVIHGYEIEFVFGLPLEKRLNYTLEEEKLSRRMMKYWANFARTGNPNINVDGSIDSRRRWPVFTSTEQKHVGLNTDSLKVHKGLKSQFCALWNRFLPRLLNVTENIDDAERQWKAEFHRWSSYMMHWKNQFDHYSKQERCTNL

Compound `CCNC(=O)OCC12CC3CC(CC(C3)C1)C2` [#31] has an IC50 (FAAH; [2]) greater than 30000 nM.

Compound `CCCCCc1cccc(OC(=O)NC2CCCCC2)c1` [#33] has an IC50 (FAAH; [2]) of 220 nM.

`O=C(NC1CCCCC1)Oc1cccc(-c2cccc(-c3ccccc3)c2)c1` [#34] was tested, and the IC50 (FAAH; [2]) was 560 nM.

In the case of `O=C(NC1CCCCC1)Oc1cccc(-c2cccc(Oc3ccccc3)c2)c1` [#35], the IC50 (FAAH; [2]) is reported as 2600 nM.

With `O=C(NC1CCCCC1)Oc1ccc2ccn(-c3ccccc3)c2c1` [#36] the IC50 (FAAH; [2]) was 1400 nM.

`O=C(NC1CCCCC1)Oc1cccc(-c2ccc(C(F)(F)F)cc2)c1` [Compound 3a] gave an IC50 (FAAH; IC50 (nM) ± S.E.M.) of 1590 nM.

In the case of `Cc1ccc(-c2cccc(OC(=O)NC3CCCCC3)c2)cc1` [Compound 3b], the IC50 (FAAH; [3]) is reported as 155 ± 21 nM.

Work on `NC(=O)c1ccc(-c2cccc(OC(=O)NC3CCCCC3)c2)cc1` [Compound 3c] yielded an IC50 (FAAH; [3]) of 5910 nM.

`Nc1ccc(-c2cccc(OC(=O)NC3CCCCC3)c2)cc1` [Compound 3d] was tested, and the IC50 (FAAH; IC50 (nM) ± S.E.M.) was 360 ± 59 nM.

`O=C(NC1CCCCC1)Oc1cccc(-c2ccc(F)cc2)c1` [Compound 3e] was tested, and the IC50 (FAAH; [3]) was 65 ± 14 nM and the “inhibition of FAAH activity (in words)” value (FAAH; rat brain membranes) was “comparable IC50 value”.

In the case of `O=C(NC(=O)c1ccc(-c2cccc(OC(=O)NC3CCCCC3)c2)cc1)NC1CCCCC1` [Compound 3f], the IC50 (FAAH; IC50 (nM) ± S.E.M.) is reported as 3020 nM.

`O=C(NC1CCCCC1)Oc1cccc(-c2cccc(C(F)(F)F)c2)c1` [Compound 3g] was tested, and the IC50 (FAAH; IC50 (nM) ± S.E.M.) was 146 ± 16 nM and the IC50 (FAAH; pIC50 obsd) was 145 nM.

For `Cc1cccc(-c2cccc(OC(=O)NC3CCCCC3)c2)c1` [Compound 3h], the IC50 (FAAH; [3]) was 61.7 ± 19 nM, the IC50 (FAAH; [4]) was 61.7 nM and the “inhibition of FAAH activity (in words)” value (FAAH; rat brain membranes) was “as potent as the parent compound”.

In the case of `Nc1cccc(-c2cccc(OC(=O)NC3CCCCC3)c2)c1` [Compound 3j], the “inhibition of FAAH activity (in words)” value (FAAH) is reported as “as potent as the parent compound”, the IC50 (FAAH; IC50 (nM) ± S.E.M.) is reported as 64.6 ± 9 nM and the IC50 (FAAH; pIC50 obsd) is reported as 64.6 nM.

Work on `O=C(NC1CCCCC1)Oc1cccc(-c2cccc(F)c2)c1` [Compound 3k] yielded an IC50 (FAAH; [3]) of 96.6 ± 4 nM and an IC50 (FAAH; [4]) of 95.5 nM.

Work on `O=C(NC1CCCCC1)Oc1cccc(-c2cccc(OC(=O)NC3CCCCC3)c2)c1` [Compound 3l] yielded an IC50 (FAAH; [3]) of 361 ± 137 nM and an IC50 (FAAH; [4]) of 363 nM.

For `O=C(NC1CCCCC1)Oc1cccc(-c2cccc(Oc3ccccc3)c2)c1` [Compound 3m], the IC50 (FAAH; [3]) was 420 ± 86 nM and the IC50 (FAAH; [4]) was 417 nM.

With `O=C(NC1CCCCC1)Oc1cccc(-c2cccc(-c3ccccc3)c2)c1` [Compound 3n] the IC50 (FAAH; [3]) was 565 ± 42 nM and the IC50 (FAAH; [4]) was 562 nM.

Work on `O=C(NC1CCCCC1)Oc1cccc(-c2cccc(Cc3ccccc3)c2)c1` [Compound 3o] yielded an IC50 (FAAH; [3]) of 1860 nM and an IC50 (FAAH; [4]) of 1860 nM.

`CCCc1cccc(-c2cccc(OC(=O)NC3CCCCC3)c2)c1` [Compound 3p] gave an IC50 (FAAH; IC50 (nM) ± S.E.M.) of 110 ± 16 nM and an IC50 (FAAH; pIC50 obsd) of 110 nM.

In the case of `O=C(NC1CCCCC1)Oc1cccc(-c2cccc([N+](=O)[O-])c2)c1` [Compound 3q], the IC50 (FAAH; [3]) is reported as 49.6 ± 2 nM and the IC50 (FAAH; [4]) is reported as 50.1 nM.

`NS(=O)(=O)c1cccc(-c2cccc(OC(=O)NC3CCCCC3)c2)c1` [Compound 3r] showed an IC50 (FAAH; [3]) of 26.5 ± 4.5 nM and an IC50 (FAAH; [4]) of 26.3 nM.

In the case of `CC(=O)c1cccc(-c2cccc(OC(=O)NC3CCCCC3)c2)c1` [Compound 3s], the IC50 (FAAH; [3]) is reported as 9.1 ± 0.5 nM and the IC50 (FAAH; [4]) is reported as 9.12 nM.

`N#Cc1cccc(-c2cccc(OC(=O)NC3CCCCC3)c2)c1` [Compound 3t] showed an IC50 (FAAH; [3]) of 33.9 ± 7 nM and an IC50 (FAAH; [4]) of 33.9 nM.

With `O=C(NC1CCCCC1)Oc1cccc(-c2cccc(O)c2)c1` [Compound 3u] the IC50 (FAAH; IC50 (nM) ± S.E.M.) was 8.65 ± 0.1 nM and the IC50 (FAAH; pIC50 obsd) was 8.71 nM.

`O=C(NC1CCCCC1)Oc1cccc(-c2cccc(CO)c2)c1` [Compound 3v] was tested, and the IC50 (FAAH; [3]) was 8.67 ± 0.9 nM and the IC50 (FAAH; [4]) was 8.71 nM.

With `O=C(NC1CCCCC1)Oc1cccc(-c2cccc(CCO)c2)c1` [Compound 3w] the IC50 (FAAH; [3]) was 18.7 ± 4.5 nM and the IC50 (FAAH; [4]) was 18.6 nM.

Work on `NCc1cccc(-c2cccc(OC(=O)NC3CCCCC3)c2)c1` [Compound 3z] yielded an IC50 (FAAH; IC50 (nM) ± S.E.M.) of 21200 nM.

In the case of `O=C(Oc1ccccc1)N1CCCCC1` [PL#1, 1-phenyl-N-piperidinecarboxylate], the IC50 [1] is reported as greater than 30000 nM, the IC50 (FAAH; [5]) is reported as greater than 30000 nM and the IC50 (FAAH; [2]) is reported as greater than 30000 nM.

In the case of `CCCCNC(=O)Oc1ccc2cc(Br)ccc2c1` [PL#3, 6-bromo-2-naphtyhyl N-butylcarbamate], the IC50 [1] is reported as greater than 30000 nM, the IC50 (FAAH; [5]) is reported as 760 nM and the IC50 (FAAH; [2]) is reported as 760 nM.

For `CNC(=O)Oc1ccc2ccccc2c1` [PL#4, 2-naphtyl-N-methylcarbamate], the IC50 [1] was greater than 30000 nM, the IC50 (FAAH; Table 1, rat brain membranes, mean of at least three experiments, read-out: IC50) was 18600 nM and the IC50 (FAAH; [5]) was 18700 nM. For the same compound, the IC50 (FAAH; [2]) was 18600 nM and the IC50 (FAAH; rat brain membranes, mean±SEM, n=3, read-out: IC50) was 18600 ± 700 nM.

Work on `O=C(NC1CCCCC1)Oc1ccc(-c2ccccc2)cc1` [PL#5, 4-biphenyl N-cyclohexylcarbamate] yielded an IC50 [1] greater than 30000 nM, an IC50 (FAAH; read-out: Amidohydrolase IC50) of 2300 nM and an IC50 (FAAH; read-out: Inhibition of Amidohydrolase IC50) of 2300 nM.

`Cc1ccc(OC(=O)NC2CCCCC2)cc1` [PL#6, p-toly-N-cyclohexy carbamate] was tested, and the IC50 [1] was greater than 30000 nM, the IC50 (FAAH; [5]) was 5400 nM and the IC50 (FAAH; [2]) was 5400 nM.

Work on `O=C(Nc1ccc(F)cc1)Oc1ccc(OCc2ccccc2)cc1` [PL#8, 4-(benzyloxy) phenyl N-(4-fluorophenyl)carbamate] yielded an IC50 [1] greater than 30000 nM, an IC50 (FAAH; [5]) greater than 30000 nM and an IC50 (FAAH; [2]) greater than 30000 nM.
